Assay results as given in US9073961B2, “Substitution derivatives of N6 -benzyladenosine-5′-monophosphate, methods of preparation thereof, use thereof as medicaments, and therapeutic preparations containing these compounds” (UNIVERZITA PALACKEHO V OLOMOUCI, priority 2010, dated 2015).

Legend:
[1] = system: HOS (human osteogenic sarcoma); assay: Calcein AM cytotoxicity assay, HOS; type: cell-based; settings: 72 hours incubation
Procedure, shortened: (§1)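 24 h preincubation, 37 °C/5% CO2; cpd added at t0, six 3-fold dilns, max 166.7 μM, triplicate; 72 h exposure; Calcein AM 1 μg/ml final, 1 h; fluorescence read. GI50 from dose-response (50% drop in esterase activity).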

[2] = system: K-562 (human erythroleukemia); assay: Calcein AM cytotoxicity assay, K-562; type: cell-based; settings: 72 hours incubation
Procedure, shortened: as §1

MCF-7 (breast carcinoma) = assay: Calcein AM cytotoxicity assay, MCF7; type: cell-based; settings: 72 hours incubation
Procedure, shortened: as §1

[3] = system: Normal human fibroblasts BJ; assay: Calcein AM cytotoxicity assay, BJ; type: cell-based; settings: 72 hours incubation
Procedure, shortened: as §1

[4] = system: G-361 (human malignant melanoma); assay: Calcein AM cytotoxicity assay, G-361; type: cell-based; settings: 72 hours incubation
Excerpt: Because toxic compounds negatively influence metabolic processes in cells, many standard cytotoxicity assays are based on measurement of metabolisation rate of various artificial substrates. Resulting product is then quantified e.g. by means of spectrometry. The assays can be easily modified for use in 96-well plates. For evaluation of cytotoxic effect of the novel substituted 9-substituted cytokinin derivatives of this invention, a microtiter assay based on quantification of metabolisation of Calcein AM was used. The assay is widely used in drug screening programs and in chemosensitivity testing. In the living cells, Calcein AM is enzymatically hydrolysed and accumulation of resulting calcein is manifested by green fluorescence.
In the routine screening the following cell lines have been used: CEM (T-lymphoblastoid leukemia), HL-60 (promyelocytic leukemia), K-562 (human erythroleukemia), MCF-7 (breast carcinoma), HOS (human osteogenic sarcoma), and G-361 (human malignant melanoma). Normal human fibroblasts BJ were used as a control for routine screening of the compounds. The cells were kept in Nunc/Corning 80 cm^2 plastic bottles and grown in cell culture medium (DMEM containing 5 g/l glucose, 2 mM glutamine, 100 U/ml penicilline, 100 μg/ml streptomycine, 10% fetal bovine serum and sodium hydrogencarbonate), the compounds were prepared according to the procedure of the present invention.
The cell suspensions were prepared and diluted according to the particular cell type and the expected target cell density (2.500-30.000 cells per well based on cell growth characteristics) and pippetted (80 μl) into 96-well plates. Inoculates were allowed a pre-incubation period of 24 hours at 37° C. and 5% CO2 for stabilisation. Tested compound was added in total volume of 20 μl of water at time zero. Usually, test compound was evaluated at six 3-fold dilutions. In routine testing, the highest concentration tested was 166.7 μM. All drug concentrations were tested in triplicates. Incubations of cells with the test compounds lasted for 72 hours at 37° C., in 5% CO2 atmosphere and 100% humidity. At the end of incubation period Calcein AM in PBS was added into final concentration of 1 μg/ml. After another 1 hour of incubation fluorescence (FD) was measured with the Labsystem FIA Reader Fluoroscan Ascent (Microsystems). Tumor cell survival (TCS) was estimated using the following equation: […]=(FDdrug exposed well/FDcontrol well)×100%. The GI50 value, the drug concentration causing 50% reduction of esterase activity, was calculated from the obtained dose response curves (FIG. 1).
Cytoxicity of novel compounds was tested on panel of cell lines of different histogenetic and species origin (Table 3). […] The effective novel derivatives killed tumour cells in concentrations close to 0.1-50 μM.

[5] = system: CEM (T-lymphoblastoid leukemia); assay: Calcein AM cytotoxicity assay, CEM; type: cell-based; settings: 72 hours incubation, Calcein AM
Procedure, shortened: as §1

[6] = system: HL-60 (promyelocytic leukemia); assay: Calcein AM cytotoxicity assay, HL60; type: cell-based, human; settings: 72 hours incubation
Procedure, shortened: as §1

Human lymphocytes = assay: Immunosuppressive activity, 3H-thymidine incorporation in concanavalin A activated lymphocytes; type: cell-based; settings: 72 hours, [3H]-TdR incorporation, read-out: Human lymphocytes ED50
Excerpt: One of the most important parameters of specific cellular immunity is the proliferative response of lymphocytes to antigens or polyclonal mitogens. The majority of normal mammalian peripheral lymphocytes comprise resting cells. Antigens or nonspecific polyclonal mitogens have the capacity to activate lymphoid cells and this is accompanied by dramatic changes of intracellular metabolism (mitochondrial activity, protein synthesis, nucleic acids synthesis, formation of blastic cells and cellular proliferation). […] Variety of in vitro assays was developed to measure proliferative response of lymphocytes. The most commonly used is ^3H-thymidine incorporation method.
During cell proliferation, DNA has to be replicated before the cell is divided into two daughter cells. This close association between cell doublings and DNA synthesis is very attractive for assessing cell proliferation. If labelled DNA precursors are added to the cell culture, cells that are about to divide incorporate the labelled nucleotide into their DNA. Traditionally, those assays usually involve the use of radiolabelled nucleosides, particularly tritiated thymidine ([^3H]-TdR). The amount of [^3H]-TdR incorporated into the cellular DNA is quantified by liquid scintillation counting.
Human heparinized peripheral blood was obtained from healthy volunteers by cubital vein punction. The blood was diluted in PBS (1:3) and mononuclear cells were separated by centrifugation in Ficoll-Hypaque density gradient (Pharmacia, 1.077 g/ml) at 2200 rpm for 30 minutes. Following centrifugation, lymphocytes were washed in PBS and resuspended in cell culture medium (RMPI 1640, 2 mM glutamine, 100 U/ml penicillin, 100 μg/ml streptomycin, 10% fetal calf serum and sodium bicarbonate).
The cells were diluted at target density of 1.100.000 cells/ml and were added by pipette (180 μl) into 96-well microtiter plates. Four-fold dilutions of the intended test concentration were added at time zero in 20 μl aliquots to the microtiter plate wells. Usually, test compound was evaluated at six 4-fold dilutions. In routine testing, the highest well concentration was 266.7 μM. All drug concentrations were examined in duplicates. All wells with exception of unstimulated controls were activated with 50 μl of concanavalin A (25 μg/ml). Incubations of cells with test compounds lasted for 72 hours at 37° C., in 5% CO2 atmosphere and 100% humidity. At the end of incubation period, the cells were assayed by using the [^3H]-TdR:
Cell cultures were incubated with 0.5 μCi (20 μl of stock solution 500 μCi/ml) per well for 6 hours at 37° C. and 5% CO2. The automated cell harvester was used to lyse cells in water and adsorb the DNA onto glass-fiber filters in the format of microtiter plate. The DNA incorporated [^3H]-TdR was retained on the filter while unincorporated material passes through. The filters were dried at room temperature overnight, sealed into a sample bag with 10-12 ml of scintillant. The amount of [^3H]-TdR present in each filter (in cpm) was determined by scintillation counting in a Betaplate liquid scintillation counter. The effective dose of immunosuppressant (ED) was calculated using the following equation: ED=(CCPMdrug exposed well/mean CCPMcontrol wells)×100%. The ED50 value, the drug concentration inhibiting proliferation of 50% of lymphocytes, was calculated from the obtained dose response curves.
To evaluate immunosuppressive activity of substituted adenines, their ability to inhibit polyclonal mitogen induced proliferation of normal human lymphocytes was analyzed (Table 4). […] Effective immunosuppressive dose of new derivatives under in vitro conditions was close to 10-40 μM.

p21^WAF-1 = assay: Induction of p21WAF-1 expression in MCF-7 cells (immunoblot); type: cell-based
Procedure: MCF-7 cells cultured at 37° C. in 5% CO2 atmosphere in DMEM medium supplemented with 10% foetal calf serum were treated with compound 28 concentration ranges of 0-100 μM. Compound 28 was added into the medium from the 100 mM stock solution in DMSO. Cells were harvested 12 hours after incubation with compound 28, centrifuged (1000 rpm, 4° C., 5 min), washed twice by ice-cold PBS and re-centrifuged. These washed cells were then lysed by 1×CSB (loading buffer for SDS-PAGE, i.e. electrophoresis of proteins in polyacrylamide gel containing SDS). Cell lysate proteins were separated by SDS-PAGE and transferred onto a nitrocelulose (NC) membrane. NC membrane was blocked by 5% skimmed milk, 0.1% Tween 20 in PBS. Protein level of p21^WAF-1 and actin (as a loaded protein volume control) were detected immunochemically using commercially available specific monoclonal antibodies anti-p21^WAF-1 (Ab-1, Calbiochem) and anti-Actin (Clone AC-40, Sigma-Aldrich). The primary antibodies bind to target proteins were detected using rabbit secondary peroxidase-labeled antibody (RAM-Px, DAKO), followed by chemiluminiscence (ECL, Amersham-Pharmacia).
MCF-7 cells were incubated in the presence of 1 μmol of compound 28. In various time intervals from the moment of administration of 28 the cells were harvested and lyzed. […]

Molecule `COc1cccc(CNc2ncnc3c2ncn3[C@@H]2O[C@H](COP(=O)(O)O)[C@@H](O)[C@H]2O)c1O` [Compound 28, 6-(2-hydroxy-3-methoxybenzylamino)purine riboside-5′-monophosphate] has a GI50 [1] of 24.1 µM, a GI50 [2] of 2.1 µM and a GI50 (MCF-7 (breast carcinoma)) of 30.4 µM. The GI50 [3] was 69.7 µM, the GI50 [4] was 27.9 µM and the GI50 [5] was 0.3 µM. For the same molecule, the GI50 [6] was 0.5 µM, the EC50 (Human lymphocytes) was 1.2 µM and the “time of effective induction of p21^WAF-1 after addition” value (p21^WAF-1; 1 μmol concentration) was 6 to 24 h. The “p21^WAF-1 protein induction in relation to concentration” value (p21^WAF-1; 12 hours, 0-100 μM tested, effective in range of units imol per liter) was “efficient p21^WAF-1 protein induction is achieved”.
